{"source": "patent US11414443B2", "about": "“Phospholipid derivatives and their use as medicaments” (USTAV MOLEKULARNI GENETIKY AV CR, V.V.I., priority 2017, dated 2022)", "key": {"[1]": {"system": "mammary gland 4T1 cancer cell line", "assay": "Crystal violet cytotoxicity assay, E-DAPL/Dox combination", "assay_type": "cell-based", "conditions": "for IC50: Mus musculus", "method": "The potentiation of cytotoxic effect of E-DAPL/Dox combination was evaluated. The dose-effect relationship of individual drugs and E-DAPL/Dox mixture (ratio 202:1 was tested) was determined on mammary gland 4T1 cancer cell line by means of crystal violet assay (three measurements). The linearized Median-Effect Plot of dose response line provided both parameters (IC50; trend line m value) of Median-Effect Equation for individual and combination treatment [ref: Theoretical basis, experimental design, and computerized simulation of synergism and antagonism in drug combination studies; Ting-Chao Chou: Pharmacol Rev. 58(3), 2006, 621-81; Erratum in Pharmacol Rev. 2007; 59(1), 124]:\nPotentiation of combination effect of E-DAPL/Dox/202:1 was expressed for the concentrations IC1 to IC60 by calculation of Combination index (CI) applying Combination Index Theorem for mutually nonexclusive drugs that obey higher order conditions [ref: Quantitative analysis of dose-effect relationships: the combined effects of multiple drugs or enzyme inhibitors; Ting-Chao Chou, Paul Talalay: Advances in Enzyme Regulation, Volume 22, 1984, Pages 27-55]: […]"}, "C32 (human melanoma)": {"system": "C32 (human melanoma)", "assay": "Cytotoxicity in C32 tumor cell culture, ATP content", "assay_type": "cell-based", "conditions": "C32 cells, 16 hours of culture", "method": "(§1) After 16 hours of culture, cell state was recorded.\n(§2) The cytotoxicity of the products was quantified by determining the ATP content in the cells and using neutral red intake, and the IC50ATP and IC50NR [μM] were determined."}, "[2]": {"system": "LMH (chicken hepatocarcinoma)", "assay": "cells", "assay_type": "cell-based", "conditions": "16 hours of culture, ATP content", "method": "(§3) The cytotoxic activity of the products was tested in tumor cell cultures C32 (human melanoma), TIB-75 (inducing murine hepatocarcinoma), LMH (chicken hepatocarcinoma).\nB) LMH cells were cultured in D-MEM medium containing 10% fetal serum and penicillin+streptomycin at 37° C. in air/5% CO2 atmosphere saturated with water vapor. Each well contained 5×10^4 cells and 0.5 ml medium. […] After 16 hours of culture, cell state was recorded.\nas §2"}, "[3]": {"system": "TIB-75 (inducing murine hepatocarcinoma)", "assay": "Cytotoxicity in TIB-75 tumor cell culture, ATP content", "assay_type": "cell-based", "conditions": "TIB-75 cells, 16 hours of culture", "method": "as §1, §2"}, "[4]": {"system": "tumor cell cultures C32, TIB-75, LMH", "assay": "Cell state and growth in tumor cell cultures, controls and comparison products", "conditions": "0-240 μM, 16 hours of culture", "method": "As a control, the starting phospholipids were used at the same concentrations and conditions.\nas §3\n(§4) A) C32 cells were cultured in D-MEM medium containing 10% fetal serum and penicillin+streptomycin at 37° C. in air/5% CO2 atmosphere saturated with water vapor. Each well contained 5×10^4 cells and 0.5 ml medium. The tested products were added to the cells at concentrations of 0, 2.5, 5, 10, 20, 40, 80, 160 and 240 μM. After 16 hours of culture, cell state was recorded.\nas §4, with “B) LMH” for “A) C32”, “phospholipids” for “products”\nas §4, with “C) TIB-75” for “A) C32”, “phospholipids” for “products”"}}, "note": "Like-named read-outs stand apart in the source and are kept apart here."}
{"compound": "COc1cccc2c1C(=O)c1c(O)c3c(c(O)c1C2=O)C[C@@](O)(C(=O)CO)C[C@@H]3O[C@H]1C[C@H](N)[C@H](O)[C@H](C)O1", "note": "[Dox, doxorubicin]", "values": [{"measurement": "concentration of Dox at IC25", "setting": "[1]; 4T1 cell line, Dox alone or within E-DAPL/Dox 202:1", "result": 0.2306, "unit": "µM"}, {"measurement": "IC50", "setting": "[1]; 4T1 cell line, Dox alone or within E-DAPL/Dox 202:1, read-out: concentration of Dox at IC50 level", "result": 0.93, "unit": "µM"}, {"measurement": "IC50", "setting": "[1]; 4T1 cells, crystal violet assay, calculated from the Median-Effect Plot, read-out: IC50", "result": 0.93, "unit": "µM"}]}
{"compound": "1-acyl-lysophosphatidylethanolamine [PE/E-DAPL]", "values": [{"measurement": "IC50", "setting": "C32 (human melanoma)", "result": 35, "unit": "µM"}, {"measurement": "IC50", "setting": "[2]", "result": 30, "unit": "µM"}, {"measurement": "IC50", "setting": "[3]", "result": 35, "unit": "µM"}]}
{"compound": "2-acyl-lysophosphatidylcholine [2-acyl PC (15-20% 1-acyl PC), reference compound]", "values": [{"measurement": "IC50", "setting": "C32 (human melanoma)", "result": 200, "unit": "µM"}, {"measurement": "IC50", "setting": "[3]", "result": 210, "unit": "µM"}]}
{"compound": "CC(CC(=O)OCC(O)COP(=O)([O-])OCC[N+](C)(C)C)CC(C)(C)C", "note": "(stereo not drawn) [sn-1 trimethylhexanoyl PC/E-DAPL]", "values": [{"measurement": "IC50", "setting": "C32 (human melanoma); Homo sapiens", "result": 130, "unit": "µM"}, {"measurement": "IC50", "setting": "[2]; Gallus gallus", "result": 140, "unit": "µM"}]}
{"compound": "C[N+](C)(C)CCOP(=O)([O-])OCC(O)COC(=O)CCC1CCCC1", "note": "(stereo not drawn) [sn-1 cyclopentanepropionyl PC/E-DAPL]", "values": [{"measurement": "IC50", "setting": "C32 (human melanoma); Homo sapiens", "result": 150, "unit": "µM"}, {"measurement": "IC50", "setting": "[2]; Gallus gallus", "result": 130, "unit": "µM"}]}
{"compound": "phosphatidylcholine [PC]", "values": [{"measurement": "cytotoxic activity: effect on phenotype and rate of cell growth", "setting": "[4]", "result": "did not affect the phenotype or reduce the rate of cell growth"}]}
{"compound": "CCCCCC(=O)OCC(O)COP(=O)([O-])OCC[N+](C)(C)C", "note": "(stereo not drawn) [sn-1 hexanoyl PC/E-DAPL]", "values": [{"measurement": "IC50", "setting": "C32 (human melanoma); Homo sapiens", "result": 130, "unit": "µM"}, {"measurement": "IC50", "setting": "[2]; Gallus gallus", "result": 135, "unit": "µM"}, {"measurement": "IC50", "setting": "[3]; Mus musculus", "result": 135, "unit": "µM"}]}
{"compound": "1-acyl-lysophosphatidylcholine [PC/E-DAPL]", "values": [{"measurement": "IC50", "setting": "C32 (human melanoma)", "result": 50, "unit": "µM"}, {"measurement": "IC50", "setting": "[2]", "result": 35, "unit": "µM"}, {"measurement": "IC50", "setting": "[3]", "result": 45, "unit": "µM"}]}
{"compound": "1-stearoyl-phosphatidylcholine [sn-1 stearoyl PC]", "values": [{"measurement": "cytotoxic activity: effect on phenotype and rate of cell growth", "setting": "[4]", "result": "did not affect the phenotype or reduce the rate of cell growth"}]}
{"compound": "phosphatidylethanolamine [PE]", "values": [{"measurement": "cytotoxic activity: effect on phenotype and rate of cell growth", "setting": "[4]", "result": "did not affect the phenotype or reduce the rate of cell growth"}]}
{"compound": "CCCCCCCCCCCCCCCCCC(=O)OCC(O)COP(=O)([O-])OCC[N+](C)(C)C", "note": "(stereo not drawn) [sn-1 stearoyl PC/E-DAPL]", "values": [{"measurement": "IC50", "setting": "C32 (human melanoma); Homo sapiens", "result": 45, "unit": "µM"}, {"measurement": "IC50", "setting": "[2]; Gallus gallus", "result": 40, "unit": "µM"}, {"measurement": "IC50", "setting": "[3]; Mus musculus", "result": 45, "unit": "µM"}]}
